In PubChem BioAssay AID1963833 (Molecular Pharmacology Branch, DTP, NCI, 2024):

Tested on: 883617-216-R-J1-PDC complex spheroid viability
Test: Anticancer human tumor 883617-216-R-J1-PDC patient-derived bladder carcinoma cell line growth inhibition [POLQ]
Settings: for IC50: curve of first compound; for viability, T/C: stronger effect = lower value
Procedure, shortened: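 Patient-derived tumour cells were co-cultured with HUVEC and mesenchymal stem cells as multicellular spheroids at 37 °C. They were treated with POLQ inhibitors (novobiocin, ART-558, RP6685) alone or combined with other agents. Top concentrations were at or near clinical Cmax (otherwise 10 microM; SN-38 at 1 microM), decreasing in half-log steps.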

[1] = second compound 0.0316 µM, first compound 0.0316 µM
[2] = second compound 0.0316 µM, first compound 0.1 µM
[3] = second compound 0.0316 µM, first compound 0.316 µM
[4] = second compound 0.0316 µM, first compound 1 µM
[5] = second compound 0.0316 µM, first compound 3.16 µM
[6] = second compound 0.0316 µM, first compound 10 µM
[7] = second compound 0.1 µM, first compound 0.0316 µM
[8] = second compound 0.1 µM, first compound 0.1 µM
[9] = second compound 0.1 µM, first compound 0.316 µM
[10] = second compound 0.1 µM, first compound 1 µM
[11] = second compound 0.1 µM, first compound 3.16 µM
[12] = second compound 0.1 µM, first compound 10 µM
[13] = second compound 0.316 µM, first compound 0.0316 µM
[14] = second compound 0.316 µM, first compound 0.1 µM
[15] = second compound 0.316 µM, first compound 0.316 µM
[16] = second compound 0.316 µM, first compound 1 µM
[17] = second compound 0.316 µM, first compound 3.16 µM
[18] = second compound 0.316 µM, first compound 10 µM
[19] = second compound 1 µM, first compound 0.0316 µM
[20] = second compound 1 µM, first compound 0.1 µM
[21] = second compound 1 µM, first compound 0.316 µM
[22] = second compound 1 µM, first compound 1 µM
[23] = second compound 1 µM, first compound 3.16 µM
[24] = second compound 1 µM, first compound 10 µM
[25] = second compound 3.16 µM, first compound 0.0316 µM
[26] = second compound 3.16 µM, first compound 0.1 µM
[27] = second compound 3.16 µM, first compound 0.316 µM
[28] = second compound 3.16 µM, first compound 1 µM
[29] = second compound 3.16 µM, first compound 3.16 µM
[30] = second compound 3.16 µM, first compound 10 µM
[31] = second compound 10 µM, first compound 0.0316 µM
[32] = second compound 10 µM, first compound 0.1 µM
[33] = second compound 10 µM, first compound 0.316 µM
[34] = second compound 10 µM, first compound 1 µM
[35] = second compound 10 µM, first compound 3.16 µM
[36] = second compound 10 µM, first compound 10 µM
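Further: spheroids exposed to compounds for seven days before readout.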
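Wherever viability, T/C is given: 100% = DMSO vehicle control viability.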

SMILES: C#Cc1c(F)ccc2cc(O)cc(-c3ncc4c(N5CC6CCC(C5)N6)nc(OCC56CCCN5CC(F)C6)nc4c3F)c12 (stereo unspecified) + Cc1cccc(N(C)C(=O)C2C(O)CCN2c2nc(C)cc(C(F)(F)F)c2C#N)c1
- IC50 (second compound 0.0316 µM): > 10000 nM
- IC50 (second compound 0.1 µM): > 10000 nM
- IC50 (second compound 0.316 µM): > 10000 nM
- IC50 (second compound 1 µM): > 10000 nM
- IC50 (second compound 3.16 µM): > 10000 nM
- IC50 (second compound 10 µM): > 10000 nM
- viability, T/C [1]: 98.1%
- viability, T/C [2]: 109%
- viability, T/C [3]: 97.7%
- viability, T/C [4]: 95.1%
- viability, T/C [5]: 86.8%
- viability, T/C [6]: 70.1%
- viability, T/C [7]: 98%
- viability, T/C [8]: 104%
- viability, T/C [9]: 109%
- viability, T/C [10]: 89.8%
- viability, T/C [11]: 86.2%
- viability, T/C [12]: 81.4%
- viability, T/C [13]: 108%
- viability, T/C [14]: 101%
- viability, T/C [15]: 110%
- viability, T/C [16]: 100%
- viability, T/C [17]: 80.6%
- viability, T/C [18]: 77.6%
- viability, T/C [19]: 104%
- viability, T/C [20]: 99%
- viability, T/C [21]: 106%
- viability, T/C [22]: 89.9%
- viability, T/C [23]: 86.5%
- viability, T/C [24]: 72.2%
- viability, T/C [25]: 103%
- viability, T/C [26]: 101%
- viability, T/C [27]: 97.8%
- viability, T/C [28]: 94.5%
- viability, T/C [29]: 81.5%
- viability, T/C [30]: 78%
- viability, T/C [31]: 115%
- viability, T/C [32]: 102%
- viability, T/C [33]: 104%
- viability, T/C [34]: 106%
- viability, T/C [35]: 87.7%
- viability, T/C [36]: 76.2%

SMILES: CC1COCCN1c1cc(C2(O)CC3CCC(C2)O3)c2cnn(-c3ccn[nH]3)c2n1 (stereo unspecified) + Cc1cccc(N(C)C(=O)C2C(O)CCN2c2nc(C)cc(C(F)(F)F)c2C#N)c1
- IC50 (second compound 0.0316 µM): 156 nM
- IC50 (second compound 0.1 µM): 173 nM
- IC50 (second compound 0.316 µM): 188 nM
- IC50 (second compound 1 µM): 125 nM
- IC50 (second compound 3.16 µM): 173 nM
- IC50 (second compound 10 µM): 215 nM
- viability, T/C [1]: 76.6%
- viability, T/C [2]: 58.4%
- viability, T/C [3]: 35.7%
- viability, T/C [4]: 33.7%
- viability, T/C [5]: 23.9%
- viability, T/C [6]: 23.9%
- viability, T/C [7]: 80.4%
- viability, T/C [8]: 54.9%
- viability, T/C [9]: 41.2%
- viability, T/C [10]: 37.9%
- viability, T/C [11]: 26.8%
- viability, T/C [12]: 23.2%
- viability, T/C [13]: 71%
- viability, T/C [14]: 61.2%
- viability, T/C [15]: 38.6%
- viability, T/C [16]: 35.8%
- viability, T/C [17]: 24.2%
- viability, T/C [18]: 24%
- viability, T/C [19]: 78.6%
- viability, T/C [20]: 48.8%
- viability, T/C [21]: 41.7%
- viability, T/C [22]: 33%
- viability, T/C [23]: 27.9%
- viability, T/C [24]: 23.2%
- viability, T/C [25]: 79.3%
- viability, T/C [26]: 54.9%
- viability, T/C [27]: 44.9%
- viability, T/C [28]: 31.6%
- viability, T/C [29]: 26.4%
- viability, T/C [30]: 23.4%
- viability, T/C [31]: 81.5%
- viability, T/C [32]: 60.3%
- viability, T/C [33]: 39.3%
- viability, T/C [34]: 42.4%
- viability, T/C [35]: 31.4%
- viability, T/C [36]: 23.9%

SMILES: CC[C@@]1(O)C(=O)OCc2c1cc1n(c2=O)Cc2cc3c(CN(C)C)c(O)ccc3nc2-1 + Nc1ccc(C#CCN(C(=O)Cc2ncc(C(F)(F)F)cc2C(F)(F)F)c2ccc(F)cc2)nn1
- IC50 (second compound 0.0316 µM): > 100 nM
- IC50 (second compound 0.1 µM): > 100 nM
- IC50 (second compound 0.316 µM): > 100 nM
- IC50 (second compound 1 µM): > 100 nM
- IC50 (second compound 3.16 µM): > 100 nM
- IC50 (second compound 10 µM): > 100 nM
- viability, T/C (second compound 0.0316 µM, first compound 0.000316 µM): 104%
- viability, T/C (second compound 0.0316 µM, first compound 0.001 µM): 99.7%
- viability, T/C (second compound 0.0316 µM, first compound 0.00316 µM): 99.6%
- viability, T/C (second compound 0.0316 µM, first compound 0.01 µM): 84.8%
- viability, T/C [1]: 84.5%
- viability, T/C [2]: 66.1%
- viability, T/C (second compound 0.1 µM, first compound 0.000316 µM): 107%
- viability, T/C (second compound 0.1 µM, first compound 0.001 µM): 99.6%
- viability, T/C (second compound 0.1 µM, first compound 0.00316 µM): 93.3%
- viability, T/C (second compound 0.1 µM, first compound 0.01 µM): 101%
- viability, T/C [7]: 85.7%
- viability, T/C [8]: 68.1%
- viability, T/C (second compound 0.316 µM, first compound 0.000316 µM): 97.3%
- viability, T/C (second compound 0.316 µM, first compound 0.001 µM): 101%
- viability, T/C (second compound 0.316 µM, first compound 0.00316 µM): 89.6%
- viability, T/C (second compound 0.316 µM, first compound 0.01 µM): 81.1%
- viability, T/C [13]: 87.3%
- viability, T/C [14]: 80.9%
- viability, T/C (second compound 1 µM, first compound 0.000316 µM): 90.2%
- viability, T/C (second compound 1 µM, first compound 0.001 µM): 104%
- viability, T/C (second compound 1 µM, first compound 0.00316 µM): 101%
- viability, T/C (second compound 1 µM, first compound 0.01 µM): 100%
- viability, T/C [19]: 81.5%
- viability, T/C [20]: 69.7%
- viability, T/C (second compound 3.16 µM, first compound 0.000316 µM): 102%
- viability, T/C (second compound 3.16 µM, first compound 0.001 µM): 99%
- viability, T/C (second compound 3.16 µM, first compound 0.00316 µM): 126%
- viability, T/C (second compound 3.16 µM, first compound 0.01 µM): 102%
- viability, T/C [25]: 75.1%
- viability, T/C [26]: 76.6%
- viability, T/C (second compound 10 µM, first compound 0.000316 µM): 122%
- viability, T/C (second compound 10 µM, first compound 0.001 µM): 119%
- viability, T/C (second compound 10 µM, first compound 0.00316 µM): 116%
- viability, T/C (second compound 10 µM, first compound 0.01 µM): 95%
- viability, T/C [31]: 91.5%
- viability, T/C [32]: 91%
